In brackets after ≈: the same amount, converted by molar mass.

Assay [1] concerns the target T1, ABHD6 (Mus musculus, UniProt Q8R2Y0).
T1 sequence (Q8R2Y0 1-336): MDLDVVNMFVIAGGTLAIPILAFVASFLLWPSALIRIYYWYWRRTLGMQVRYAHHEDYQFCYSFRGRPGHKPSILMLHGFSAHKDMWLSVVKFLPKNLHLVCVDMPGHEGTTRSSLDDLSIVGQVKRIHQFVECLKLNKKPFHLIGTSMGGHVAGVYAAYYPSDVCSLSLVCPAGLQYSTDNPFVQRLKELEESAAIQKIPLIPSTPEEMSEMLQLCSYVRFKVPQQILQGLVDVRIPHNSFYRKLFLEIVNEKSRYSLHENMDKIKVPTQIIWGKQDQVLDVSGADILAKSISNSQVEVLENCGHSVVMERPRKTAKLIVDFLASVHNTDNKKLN
Description: In vitro competitive activity-based protein profiling (Table 2, % inhibition at 1 μM). It counts as biochemical. The settings on record: read-out: % Inhibition at 1 μM ABHD6.

Assay [2] concerns the target T2, FAAH (Mus musculus, UniProt O08914).
T2 sequence (O08914 1-579): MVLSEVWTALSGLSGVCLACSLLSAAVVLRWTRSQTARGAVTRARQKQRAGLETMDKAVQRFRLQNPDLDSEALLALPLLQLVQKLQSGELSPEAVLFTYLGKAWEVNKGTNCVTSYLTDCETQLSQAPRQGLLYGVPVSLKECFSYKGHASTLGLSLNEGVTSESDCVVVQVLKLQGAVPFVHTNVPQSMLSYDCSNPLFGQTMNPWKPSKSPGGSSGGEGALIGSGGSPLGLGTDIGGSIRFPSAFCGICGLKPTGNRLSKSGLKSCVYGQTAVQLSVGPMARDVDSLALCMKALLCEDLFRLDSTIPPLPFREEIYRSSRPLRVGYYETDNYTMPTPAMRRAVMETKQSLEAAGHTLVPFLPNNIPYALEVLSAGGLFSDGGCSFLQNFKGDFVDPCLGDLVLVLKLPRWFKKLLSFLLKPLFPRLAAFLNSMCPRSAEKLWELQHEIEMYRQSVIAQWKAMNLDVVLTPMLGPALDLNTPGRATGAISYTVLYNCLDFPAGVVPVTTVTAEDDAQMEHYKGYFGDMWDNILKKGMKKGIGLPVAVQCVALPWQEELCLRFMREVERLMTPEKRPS
The assay is described as above. It counts as biochemical. The settings on record: read-out: % Inhibition at 1 μM FAAH.

The test system of assay [3] is Mycobacterium Tuberculosis (Mtb). The assay can be described thus: Microplate Alamar Blue assay (MABA) against Mtb. The class given is cell-based. On the procedure:
The activity of disclosed compounds against Mtb can be assessed according to a method based on the microplate Alamar Blue® assay (MABA) (Collins and Franzblau, 1997. Microplate alamar blue assay versus BACTEC 460 system for high-throughput screening of compounds against Mycobacterium tuberculosis and Mycobacterium avium. Antimicrobial Agents and Chemotherapy 41, 1004-1009). Briefly, stock solutions of disclosed compounds are prepared and added to, for example, two wells of a microplate. One well is inoculated with broth containing Mtb. The second well receives only media in order to assess background fluorescence. For MICs, serial dilutions are performed in media. Each microplate is incubated for a period of time. After incubation, one control growth is developed with a mixture of Alamar Blue® solution and Tween 80. The plates are then reincubated. Afterwards, if the well turns pink, the dye mixture is placed into all wells and the plates are reincubated for an additional period of time. The mean fluorescence units (FU) of media-only wells are subtracted from all other wells. The results are expressed in terms of % inhibition defined as 1-(test well FU/mean FU of triplicate bacteria-only wells)×100. The MIC is defined as the lowest concentration effecting a reduction in fluorescence of ≧90% relative to bacteria-only controls.

Assay [4] concerns the target T3, MAGL (Mus musculus, UniProt O35678).
T3 sequence (O35678 1-303): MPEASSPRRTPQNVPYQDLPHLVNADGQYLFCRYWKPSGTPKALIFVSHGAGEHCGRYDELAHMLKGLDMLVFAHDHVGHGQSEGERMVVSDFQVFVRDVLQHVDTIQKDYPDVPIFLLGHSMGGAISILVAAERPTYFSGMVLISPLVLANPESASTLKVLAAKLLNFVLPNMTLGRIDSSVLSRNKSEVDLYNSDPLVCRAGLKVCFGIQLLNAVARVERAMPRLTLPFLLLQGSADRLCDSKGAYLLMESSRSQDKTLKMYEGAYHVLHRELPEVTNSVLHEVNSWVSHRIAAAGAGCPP
Description: In vitro competitive activity-based protein profiling (Table 2, % inhibition at 1 μM). It counts as biochemical. The settings on record: read-out: % Inhibition at 1 μM MAGL. On the procedure: After 30 min, FP—Rh (1.0 μL, 50 μM in DMSO) was added and the mixture was incubated for another 30 min at 37° C. Reactions were quenched with SDS loading buffer (50 μL-4×) and run on SDS-PAGE.
Cell lysates were diluted with mock proteomes for use in competitive ABPP experiments.

Assay [5] has as its system Mycobacterium tuberculosis H37Rv (pFCA-luxAB). The assay can be described thus: microbe, parasite or virus in culture. It counts as cell-based. The settings on record: for inhibition at 100 µM: read-out: % Inhibition at 100 μM Mtb LORA.
For assay [6], the system named is Trypanosoma brucei. The assay can be described thus: Alamar Blue assay against Trypanosoma brucei. It counts as cell-based. The settings on record: read-out: IC50 T. brucei. An excerpt:
The ability of disclosed compounds to inhibit Trypanosoma brucei (T. brucei) can be assessed using the Alamar Blue® assay (Räz et al., 1997. The Alamar Blue® assay to determine drug sensitivity of African trypanosomes (T.b. rhodesiense and T.b. gambiense) in vitro. Acta Tropica 68, 139-147). Bloodstream form trypanosomes are cultivated in Minimum Essential Medium (MEM). Standard curves can be generated by serially diluting T. brucei in culture medium and measuring fluorescence and absorbance after a period of incubation with Alamar Blue®. A drug sensitivity assay can be performed as described for the LILIT (long incubation low inoculation test) previously described (Brun and Lun, 1994. Drug sensitivity of Chinese Trypanosoma evansi and Trypanosoma equiperdum isolates. Vet. Parasitol. 52, 37-46) with minor modifications. Briefly, bloodstream form trypanosomes can be inoculated into microtiter plates and incubated in the presence of various disclosed compound concentrations for a period of time. Background fluorescence and absorbance of the drug-containing medium are determined for each drug dilution. Wells without drug serve as controls. Alamar Blue® is added after a period of time and fluorescence and colorimetric development is later determined.

The target in assay [7] is T1, ABHD6. Description: biochemical. The settings on record: in vitro competitive ABPP.
Assay [8] deals with T3, MAGL. Description: biochemical. The settings on record: mouse; in vitro competitive ABPP; read-out: Mouse (IC50 value, nM) MAGL.
Assay [9] concerns the target T2, FAAH. The assay can be described thus: biochemical. The settings on record: in vitro competitive ABPP.
For assay [10], the target named is T4, Mouse brain MAGL (Mus musculus, UniProt O35678).
T4 construct: from tissue; host or cells: brain of wild-type C57Bl/6J mice dosed by oral gavage
T4 sequence (O35678 1-303): T3 sequence (O35678 1-303)
Description: Mouse brain proteomes from inhibitor treated mice (oral gavage, ABPP analysis). It counts as in vivo. The settings on record: p.o., sacrificed 4 h following administration.

Turning to `O=C(OC(C(F)(F)F)C(F)(F)F)N1CC2CN(Cc3ccc(-c4ccccc4)cc3)CC2C1` (centres unmarked) [Example 9, 1,1,1,3,3,3-Hexafluoropropan-2-yl 5-[(4-phenylphenyl)methyl]-octahydropyrrolo[3,4-c]pyrrole-2-carboxylate], the inhibition at 1 µM is 25 to 75% in assay [1], 25 to 75% in assay [2] and more than 75% in assay [4]. Moreover, the MIC in assay [3] and in assay [5] (read-out: MIC Mtb LORA) was not above 50 µM each time. Besides, the inhibition at 100 µM in assay [5] is more than 80%.
As for `O=C(ON1C(=O)CCC1=O)N1CC2CN(C(c3ccc(Cl)cc3)c3ccc(Cl)cc3)CC2C1` (centres unmarked) [Example 83, 2,5-Dioxopyrrolidin-1-yl 5-[bis(4-chlorophenyl)methyl]-octahydropyrrolo[3,4-c]pyrrole-2-carboxylate], the inhibition at 1 µM in assay [1] was less than 25%; in assay [2] it was less than 25%; in [4], 25 to 75%. Further, the MIC in assay [3] is not above 50 µM. For the same compound, in [5], the inhibition at 100 µM was more than 80%.
As for `CNC(=O)C(OC(=O)N1CC2CN(Cc3ccc(-c4ccccc4)cc3)CC2C1)C(F)(F)F` (centres unmarked) [Example 126, 2,2,2-Trifluoro-1-(methylcarbamoyl)ethyl 5-[(4-phenylphenyl)methyl]-octahydropyrrolo[3,4-c]pyrrole-2-carboxylate], the results for the inhibition at 1 µM in [1], in assay [2] and in [4] were less than 25%, 25 to 75% and 25 to 75%, respectively. Further, in assay [3], the MIC lay in the range of 51 to 100 µM (≈ 23.5 to 46.1 µg/mL). For the same compound, in [5], the inhibition at 100 µM is more than 80%.
Turning to `O=C(ON1C(=O)CCC1=O)N1CC2CN(Cc3ccc(Cl)cc3N3CCC4(CCOCC4)C3)CC2C1` (centres unmarked) [Example 106, 2,5-Dioxopyrrolidin-1-yl 5-[(4-chloro-2-[8-oxa-2-azaspiro[4.5]decan-2-yl]phenyl)methyl]-octahydropyrrolo[3,4-c]pyrrole-2-carboxylate], the inhibition at 1 µM in assay [1] is less than 25%; in [2], less than 25%; in [4], 25 to 75%. For the same compound, the IC50 in assay [6] was less than 5000 nM.
Consider `O=C(ON1C(=O)CCC1=O)N1CC2CN(Cc3ccc(-c4ccccc4)cc3)CC2C1` (centres unmarked) [Example 84, 2,5-Dioxopyrrolidin-1-yl 5-[(4-phenylphenyl)methyl]-octahydropyrrolo[3,4-c]pyrrole-2-carboxylate], for which the inhibition at 1 µM is 25 to 75% in assay [1], more than 75% in assay [2] and more than 75% in assay [4]. Also, in assay [3], the MIC was 51 to 100 µM (≈ 21.4 to 41.9 µg/mL). Also, the inhibition at 100 µM in assay [5] was more than 80%.
For `CNC(=O)C(OC(=O)N1CC2CN(C(c3ccc(Cl)cc3)c3ccc(Cl)cc3)CC2C1)C(F)(F)F` (centres unmarked) [Example 125, 2,2,2-Trifluoro-1-(methylcarbamoyl)ethyl 5-[bis(4-chlorophenyl)methyl]-octahydropyrrolo[3,4-c]pyrrole-2-carboxylate], the inhibition at 1 µM in [1] was less than 25%; in assay [2] it was less than 25%; in [4] it was 25 to 75%. Further, the MIC in assay [3] is not above 50 µM. Besides, the inhibition at 100 µM in [5] is more than 80%.
Turning to `Cn1cc(CN2CC3CN(C(=O)OC(C(F)(F)F)C(F)(F)F)CC3C2)c(-c2ccccc2)n1` (centres unmarked) [Example 50, 1,1,1,3,3,3-Hexafluoropropan-2-yl 5-((1-methyl-3-phenyl-1H-pyrazol-4-yl)methyl)hexahydropyrrolo[3,4-c]pyrrole-2(1H)-carboxylate], the inhibition at 1 µM was 25 to 75% in [1], less than 25% in [2] and more than 75% in [4]. Moreover, the concentration for half-maximal inhibition (IC50) in [7] is 1000 to 10000 nM; in [8] it was less than 100 nM; in assay [9], 1000 to 10000 nM. In assay [10], this compound had an inhibition at 5 mg/kg of 25 to 75%.
As for `O=C(OC(C(F)(F)F)C(F)(F)F)N1CC2CN(Cc3ccc(Cl)cc3N3CCOC4CCCC43)CC2C1` (centres unmarked) [Example 4, 1,1,1,3,3,3-Hexafluoropropan-2-yl 5-(4-chloro-2-(hexahydrocyclopenta[b][1,4]oxazin-4(4aH)-yl)benzyl)hexahydropyrrolo[3,4-c]pyrrole-2(1H)-carboxylate], the inhibition at 1 µM is less than 25% in [1], less than 25% in assay [2] and more than 75% in assay [4]. The concentration for half-maximal inhibition (IC50) in assay [7] lay within 1000 to 10000 nM; in assay [8], 100 to 1000 nM; in [9], 1000 to 10000 nM. In [10], this compound returned an inhibition at 5 mg/kg not above 25%.

These data come from patent US9828379B2 (priority 2013, dated 2017).
